Assay results as given in ChEMBL document CHEMBL4138123, “Design, synthesis and biological evaluation of novel pyrazolochalcones as potential modulators of PI3K/Akt/mTOR pathway and inducers of apoptosis in breast cancer cells” (Eur J Med Chem, 2017).

Tests used:
TK-10 [1] = experiment: Cytotoxicity against human TK10 cells assessed as cell growth at 0.01 uM after 48 hrs by sulforhodamine B assay relative to control; type: functional; conditions: TK-10, 48 h, read-out: Activity
HT-29 = experiment: Cytotoxicity against human HT-29 cells assessed as cell growth at 10 uM after 48 hrs by sulforhodamine B assay relative to control; type: functional; conditions: HT-29, 48 h, read-out: Activity
RXF 393 [2] = experiment: Cytotoxicity against human RXF393 cells assessed as cell growth at 0.1 uM after 48 hrs by sulforhodamine B assay relative to control; type: functional; conditions: RXF 393, 48 h, read-out: Activity
UACC-257 = experiment: Cytotoxicity against human UACC257 cells assessed as growth inhibition after 48 hrs by sulforhodamine B assay; type: functional; conditions: UACC-257, 48 h
K562 = experiment: Cytotoxicity against human K562 cells assessed as cell growth at 1 uM after 48 hrs by sulforhodamine B assay relative to control; type: functional; conditions: K562, 48 h, read-out: Activity
Malme-3M = experiment: Cytotoxicity against human MALME-3M cells assessed as growth inhibition after 48 hrs by sulforhodamine B assay; type: functional
U-251 [3] = experiment: Cytotoxicity against human U251 cells assessed as cell growth at 1 uM after 48 hrs by sulforhodamine B assay relative to control; type: functional; conditions: U-251, 48 h, read-out: Activity
SK-MEL-28 [4] = experiment: Cytotoxicity against human SK-MEL-28 cells assessed as cell growth at 0.01 uM after 48 hrs by sulforhodamine B assay relative to control; type: functional; conditions: SK-MEL-28, 48 h, read-out: Activity
MOLT-4 = experiment: Cytotoxicity against human MOLT4 cells assessed as cell growth at 1 uM after 48 hrs by sulforhodamine B assay relative to control; type: functional; conditions: MOLT-4, 48 h, read-out: Activity
BT-549 [5] = experiment: Cytotoxicity against human BT549 cells assessed as cell growth at 100 uM after 48 hrs by sulforhodamine B assay relative to control; type: functional; conditions: BT-549, 48 h, read-out: Activity
MDA-MB-435 = experiment: Cytotoxicity against human MDA-MB-435 cells assessed as cell growth at 1 uM after 48 hrs by sulforhodamine B assay relative to control; type: functional; conditions: MDA-MB-435, 48 h, read-out: Activity
MDA-MB-231 [6] = experiment: Cytotoxicity against human MDA-MB-231 cells assessed as cell growth at 0.01 uM after 48 hrs by sulforhodamine B assay relative to control; type: functional; conditions: MDA-MB-231, 48 h, read-out: Activity
RXF 393 [7] = experiment: Cytotoxicity against human RXF393 cells assessed as cell growth at 100 uM after 48 hrs by sulforhodamine B assay relative to control; type: functional; conditions: RXF 393, 48 h, read-out: Activity
UO-31 = experiment: Cytotoxicity against human UO31 cells assessed as growth inhibition after 48 hrs by sulforhodamine B assay; type: functional; conditions: UO-31, 48 h
TK-10 [8] = experiment: Cytotoxicity against human TK10 cells assessed as cell growth at 0.1 uM after 48 hrs by sulforhodamine B assay relative to control; type: functional; conditions: TK-10, 48 h, read-out: Activity
A549 = experiment: Cytotoxicity against human A549/ATCC cells assessed as cell growth at 0.1 uM after 48 hrs by sulforhodamine B assay relative to control; type: functional; conditions: A549, 48 h, read-out: Activity
SK-MEL-28 [9] = experiment: Cytotoxicity against human SK-MEL-28 cells assessed as cell growth at 0.1 uM after 48 hrs by sulforhodamine B assay relative to control; type: functional; conditions: SK-MEL-28, 48 h, read-out: Activity
HL-60(TB) = experiment: Cytotoxicity against human HL-60(TB) cells assessed as cell growth at 1 uM after 48 hrs by sulforhodamine B assay relative to control; type: functional; conditions: HL-60, 48 h, read-out: Activity
U-251 [10] = experiment: Cytotoxicity against human U251 cells assessed as cell growth at 0.01 uM after 48 hrs by sulforhodamine B assay relative to control; type: functional; conditions: U-251, 48 h, read-out: Activity
Hs-578T = experiment: Cytotoxicity against human Hs 578T cells assessed as cell growth at 0.01 uM after 48 hrs by sulforhodamine B assay relative to control; type: functional; conditions: read-out: Activity
OVCAR-4 = experiment: Cytotoxicity against human OVCAR4 cells assessed as cell growth at 10 uM after 48 hrs by sulforhodamine B assay relative to control; type: functional; conditions: OVCAR-4, 48 h, read-out: Activity
SN12C [11] = experiment: Cytotoxicity against human SN12C cells assessed as cell growth at 10 uM after 48 hrs by sulforhodamine B assay relative to control; type: functional; conditions: read-out: Activity
MDA-MB-468 = experiment: Cytotoxicity against human MDA-MB-468 cells assessed as cell growth at 0.01 uM after 48 hrs by sulforhodamine B assay relative to control; type: functional; conditions: MDA-MB-468, 48 h, read-out: Activity
CCRF-CEM [12] = experiment: Cytotoxicity against human CCRF-CEM cells assessed as cell growth at 1 uM after 48 hrs by sulforhodamine B assay relative to control; type: functional; conditions: read-out: Activity
BT-549 [13] = experiment: Cytotoxicity against human BT549 cells assessed as cell growth at 0.01 uM after 48 hrs by sulforhodamine B assay relative to control; type: functional; conditions: BT-549, 48 h, read-out: Activity
NCI-H322M = experiment: Cytotoxicity against human NCI-H322M cells assessed as growth inhibition after 48 hrs by sulforhodamine B assay; type: functional; conditions: for CC50: read-out: LC50 (the source's name)
SN12C [14] = experiment: Cytotoxicity against human SN12C cells assessed as cell growth at 0.1 uM after 48 hrs by sulforhodamine B assay relative to control; type: functional; conditions: read-out: Activity
A498 = experiment: Cytotoxicity against human A498 cells assessed as cell growth at 10 uM after 48 hrs by sulforhodamine B assay relative to control; type: functional; conditions: A498, 48 h, read-out: Activity
U-251 [15] = experiment: Cytotoxicity against human U251 cells assessed as cell growth at 10 uM after 48 hrs by sulforhodamine B assay relative to control; type: functional; conditions: U-251, 48 h, read-out: Activity
SR [16] = experiment: Cytotoxicity against human SR cells assessed as cell growth at 0.01 uM after 48 hrs by sulforhodamine B assay relative to control; type: functional; conditions: read-out: Activity
TK-10 [17] = experiment: Cytotoxicity against human TK10 cells assessed as cell growth at 10 uM after 48 hrs by sulforhodamine B assay relative to control; type: functional; conditions: TK-10, 48 h, read-out: Activity
SK-MEL-28 [18] = experiment: Cytotoxicity against human SK-MEL-28 cells assessed as cell growth at 1 uM after 48 hrs by sulforhodamine B assay relative to control; type: functional; conditions: SK-MEL-28, 48 h, read-out: Activity
CCRF-CEM [19] = experiment: Cytotoxicity against human CCRF-CEM cells assessed as cell growth at 0.01 uM after 48 hrs by sulforhodamine B assay relative to control; type: functional; conditions: read-out: Activity
SNB-19 = experiment: Cytotoxicity against human SNB19 cells assessed as cell growth at 10 uM after 48 hrs by sulforhodamine B assay relative to control; type: functional; conditions: SNB-19, 48 h, read-out: Activity
MDA-MB-231 [20] = experiment: Cytotoxicity against human MDA-MB-231 cells assessed as growth inhibition after 48 hrs by MTT assay; type: functional, cell-based; conditions: MDA-MB-231, 48 h
M14 = experiment: Cytotoxicity against human M14 cells assessed as cell growth at 100 uM after 48 hrs by sulforhodamine B assay relative to control; type: functional; conditions: M14, 48 h, read-out: Activity
SR [21] = experiment: Cytotoxicity against human SR cells assessed as growth inhibition after 48 hrs by sulforhodamine B assay; type: functional; conditions: for CC50: read-out: LC50 (the source's name)

COc1cc(-c2cc(/C=C/C(=O)c3ccc(Cl)c(Cl)c3)[nH]n2)cc(OC)c1OC
growth at 0.01 µM (TK-10 [1]): 90% | growth at 10 µM (HT-29): 53% | growth at 0.1 µM (RXF 393 [2]): 96% | LC50 (UACC-257): > 100 µM | TGI (UACC-257): 74 µM | growth at 1 µM (K562): 101% | LC50 (Malme-3M): > 100 µM | TGI (Malme-3M): > 100 µM | growth at 1 µM (U-251 [3]): 87% | growth at 0.01 µM (SK-MEL-28 [4]): 108% | growth at 1 µM (MOLT-4): 97% | growth at 100 µM (BT-549 [5]): -53% | growth at 1 µM (MDA-MB-435): 90% | growth at 0.01 µM (MDA-MB-231 [6]): 103% | growth at 100 µM (RXF 393 [7]): -71% | LC50 (UO-31): > 100 µM | TGI (UO-31): > 100 µM | growth at 0.1 µM (TK-10 [8]): 91% | growth at 0.1 µM (A549): 99% | growth at 0.1 µM (SK-MEL-28 [9]): 114% | growth at 1 µM (HL-60(TB)): 90% | growth at 0.01 µM (U-251 [10]): 97% | growth at 0.01 µM (Hs-578T): 98% | growth at 10 µM (OVCAR-4): 52% | growth at 10 µM (SN12C [11]): 56% | growth at 0.01 µM (MDA-MB-468): 94% | growth at 1 µM (CCRF-CEM [12]): 71% | growth at 0.01 µM (BT-549 [13]): 89% | TGI (NCI-H322M): > 100 µM | CC50 (NCI-H322M): > 100 µM | growth at 0.1 µM (SN12C [14]): 96% | growth at 10 µM (A498): 43% | growth at 10 µM (U-251 [15]): 48% | growth at 0.01 µM (SR [16]): 104% | growth at 10 µM (TK-10 [17]): 46% | growth at 1 µM (SK-MEL-28 [18]): 114% | growth at 0.01 µM (CCRF-CEM [19]): 98% | growth at 10 µM (SNB-19): 50% | IC50 (MDA-MB-231 [20]): 2.1 µM | growth at 100 µM (M14): 20% | TGI (SR [21]): 13.5 µM | CC50 (SR [21]): 96 µM

COc1ccc(C(=O)/C=C/c2cc(-c3ccc4c(c3)OCO4)n[nH]2)cc1OC
growth at 0.01 µM (TK-10 [1]): 91% | growth at 10 µM (HT-29): 2% | growth at 0.1 µM (RXF 393 [2]): 97% | LC50 (UACC-257): 56.4 µM | TGI (UACC-257): 22.1 µM | growth at 1 µM (K562): 80% | LC50 (Malme-3M): 61.8 µM | TGI (Malme-3M): 22.8 µM | growth at 1 µM (U-251 [3]): 69% | growth at 0.01 µM (SK-MEL-28 [4]): 99% | growth at 1 µM (MOLT-4): 96% | growth at 100 µM (BT-549 [5]): -90% | growth at 1 µM (MDA-MB-435): 96% | growth at 0.01 µM (MDA-MB-231 [6]): 102% | growth at 100 µM (RXF 393 [7]): -95% | GI50 (UO-31): 2.32 µM | LC50 (UO-31): 34.5 µM | TGI (UO-31): 10.1 µM | growth at 0.1 µM (TK-10 [8]): 92% | growth at 0.1 µM (A549): 96% | growth at 0.1 µM (SK-MEL-28 [9]): 104% | growth at 1 µM (HL-60(TB)): 89% | growth at 0.01 µM (U-251 [10]): 90% | growth at 0.01 µM (Hs-578T): 96% | growth at 10 µM (OVCAR-4): 18% | growth at 10 µM (SN12C [11]): 11% | growth at 0.01 µM (MDA-MB-468): 92% | growth at 1 µM (CCRF-CEM [12]): 85% | growth at 0.01 µM (BT-549 [13]): 102% | TGI (NCI-H322M): 7.3 µM | CC50 (NCI-H322M): 29.6 µM | growth at 0.1 µM (SN12C [14]): 95% | growth at 10 µM (A498): -43% | growth at 10 µM (U-251 [15]): -25% | growth at 0.01 µM (SR [16]): 90% | growth at 10 µM (TK-10 [17]): -5% | growth at 1 µM (SK-MEL-28 [18]): 96% | growth at 0.01 µM (CCRF-CEM [19]): 99% | growth at 10 µM (SNB-19): 21% | IC50 (MDA-MB-231 [20]): 1.5 µM | growth at 100 µM (M14): -77% | TGI (SR [21]): 6.48 µM | CC50 (SR [21]): > 100 µM
